Where only a bound is given, the exact number is not on record here.

In test [1] the test system is Rattus norvegicus. Briefly: In vivo inhibition of ACLY in po dosed rat assessed as reduction in plasma triglyceride level after 7 days relative to control. Type of test: functional.
In test [2] the test system is Canis familiaris. Briefly: In vivo inhibition of ACLY in po dosed dog assessed as reduction in plasma triglyceride level after 15 days relative to control. The test is classed as functional, Canis lupus familiaris.
Test [3] deals with Rattus norvegicus. Briefly: In vivo inhibition of ACLY in po dosed rat assessed as reduction in plasma cholesterol level after 7 days relative to control. The test is classed as functional.
Test [4] deals with Canis familiaris. Put plainly: In vivo inhibition of ACLY in po dosed dog assessed as reduction in plasma cholesterol level after 15 days relative to control. Type of test: functional, Canis lupus familiaris.
Test [5] addresses T1, ATP-citrate synthase (Rattus norvegicus, UniProt P16638).
T1 sequence (P16638 whole entry): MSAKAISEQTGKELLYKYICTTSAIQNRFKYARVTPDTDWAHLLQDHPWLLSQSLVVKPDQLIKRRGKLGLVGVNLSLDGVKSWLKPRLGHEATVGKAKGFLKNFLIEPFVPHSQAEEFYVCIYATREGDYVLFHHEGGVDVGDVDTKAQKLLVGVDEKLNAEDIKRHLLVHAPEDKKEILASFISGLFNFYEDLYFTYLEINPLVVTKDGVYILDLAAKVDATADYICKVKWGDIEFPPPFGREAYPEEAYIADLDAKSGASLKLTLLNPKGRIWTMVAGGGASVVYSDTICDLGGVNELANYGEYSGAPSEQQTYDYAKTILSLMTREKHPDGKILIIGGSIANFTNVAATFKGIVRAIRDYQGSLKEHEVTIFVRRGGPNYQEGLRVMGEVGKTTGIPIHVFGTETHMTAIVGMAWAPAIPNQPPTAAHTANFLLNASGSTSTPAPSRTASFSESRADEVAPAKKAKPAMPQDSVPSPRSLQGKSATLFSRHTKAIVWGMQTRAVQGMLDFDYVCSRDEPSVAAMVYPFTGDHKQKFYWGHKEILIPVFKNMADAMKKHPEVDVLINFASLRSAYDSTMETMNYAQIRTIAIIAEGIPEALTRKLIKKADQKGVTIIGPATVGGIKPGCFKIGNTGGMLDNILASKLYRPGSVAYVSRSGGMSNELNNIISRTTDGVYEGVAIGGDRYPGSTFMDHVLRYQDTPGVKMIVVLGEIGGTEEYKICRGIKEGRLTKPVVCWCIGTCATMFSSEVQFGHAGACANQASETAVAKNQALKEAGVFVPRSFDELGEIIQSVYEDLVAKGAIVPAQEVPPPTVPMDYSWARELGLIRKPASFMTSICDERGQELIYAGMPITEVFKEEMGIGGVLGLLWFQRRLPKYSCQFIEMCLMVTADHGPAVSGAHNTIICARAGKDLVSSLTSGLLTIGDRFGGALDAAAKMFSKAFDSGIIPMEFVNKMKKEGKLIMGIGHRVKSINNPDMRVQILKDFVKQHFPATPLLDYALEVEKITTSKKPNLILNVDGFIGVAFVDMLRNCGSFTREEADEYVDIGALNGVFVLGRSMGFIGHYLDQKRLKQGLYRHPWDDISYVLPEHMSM
Put plainly: (§1) Inhibition of rat liver ACLY.

For test [6], the target named is T2, ATP-citrate synthase (Homo sapiens, UniProt P53396).
T2 sequence (P53396 whole entry): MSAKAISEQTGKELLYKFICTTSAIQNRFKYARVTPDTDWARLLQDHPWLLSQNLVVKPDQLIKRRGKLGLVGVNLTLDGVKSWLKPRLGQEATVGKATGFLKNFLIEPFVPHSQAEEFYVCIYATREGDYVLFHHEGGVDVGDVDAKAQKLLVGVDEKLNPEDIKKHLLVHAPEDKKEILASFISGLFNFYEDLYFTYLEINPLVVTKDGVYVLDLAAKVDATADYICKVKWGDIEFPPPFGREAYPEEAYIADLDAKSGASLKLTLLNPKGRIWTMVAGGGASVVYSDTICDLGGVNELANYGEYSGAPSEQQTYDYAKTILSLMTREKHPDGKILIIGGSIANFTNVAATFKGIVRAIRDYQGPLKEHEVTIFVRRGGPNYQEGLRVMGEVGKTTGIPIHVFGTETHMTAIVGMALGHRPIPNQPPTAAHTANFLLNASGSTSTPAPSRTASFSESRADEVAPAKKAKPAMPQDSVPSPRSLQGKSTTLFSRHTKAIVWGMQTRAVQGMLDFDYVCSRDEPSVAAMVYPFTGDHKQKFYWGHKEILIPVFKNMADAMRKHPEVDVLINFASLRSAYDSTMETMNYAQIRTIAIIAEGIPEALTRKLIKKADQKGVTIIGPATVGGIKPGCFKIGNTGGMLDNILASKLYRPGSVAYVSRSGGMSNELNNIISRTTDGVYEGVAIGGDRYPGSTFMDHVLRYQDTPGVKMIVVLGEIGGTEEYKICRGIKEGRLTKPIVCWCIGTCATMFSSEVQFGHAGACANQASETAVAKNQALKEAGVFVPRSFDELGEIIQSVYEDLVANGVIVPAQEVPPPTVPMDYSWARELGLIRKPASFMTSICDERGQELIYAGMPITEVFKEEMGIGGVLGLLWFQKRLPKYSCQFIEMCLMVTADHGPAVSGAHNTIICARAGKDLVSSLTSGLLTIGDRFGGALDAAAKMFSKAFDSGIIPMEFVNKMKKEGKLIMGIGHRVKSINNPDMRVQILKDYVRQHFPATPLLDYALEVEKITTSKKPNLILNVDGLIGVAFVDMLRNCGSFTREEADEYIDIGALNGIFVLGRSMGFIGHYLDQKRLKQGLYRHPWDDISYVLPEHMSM
Description: Competitive inhibition of human liver ACLY using varying levels of citrate as substrate

Test [7] has as its target T3, ATP-citrate synthase (Rattus norvegicus) (UniProt P16638).
T3 sequence (whole entry): T1 sequence (P16638 whole entry)
The test is described as §1. The settings on record: concentration not given here.

A further test deals with LNCaP. Briefly: Antiproliferative activity against human LNCAP cells. Type of test: functional, cell-based.
The test system of the next test is PC-3. Briefly: Antiproliferative activity against human PC3 cells. The test is classed as functional, cell-based.
Test [8] addresses T1, ATP-citrate synthase. Put plainly: Reversible inhibition of rat liver ACLY.
Test [9] deals with T2, ATP-citrate synthase. Briefly: Inhibition of ACLY (unknown origin).
In test [10] the test system is Rattus norvegicus. Put plainly: In vivo inhibition of ACLY in rat administered through diet relative to control. Type of test: functional.
The subject of the next test is SK-OV-3. Briefly: Antiproliferative activity against human SKOV3 cells. Type of test: functional, cell-based.
The next test deals with A549. Put plainly: Antiproliferative activity against human A549 cells. The test is classed as functional, cell-based.
For test [11], the target named is T4, ATP-citrate synthase (Homo sapiens) (UniProt P53396).
T4 sequence (whole entry): T2 sequence (P53396 whole entry)
Briefly: Inhibition of ACLY in human HepG2 cells assessed as reduction in cholesterol synthesis at 30 uM relative to control. Type of test: cell-based.

The target in test [12] is T4, ATP-citrate synthase (Homo sapiens). Put plainly: Inhibition of ACLY in human HepG2 cells assessed as reduction in fatty acid synthesis at 30 uM relative to control. Type of test: cell-based.

With `O=C(O)C[C@@](O)(C[C@H](O)CCCCCCc1ccc(Cl)cc1Cl)C(=O)O`, the “inhibition (INH)” value in the test with Rattus norvegicus [1] is reported as “<=80%”; with Canis familiaris [2], “<=38%”; with Rattus norvegicus [3], “<=46%”; in the test on Canis familiaris [4], “<=23%”. Regarding `CC1=CC(O)=C2C(=O)c3c(ccc(-c4ccc5c(c4O)C(=O)C4=C(O)C6OC6(C)C(OC(=O)CC(=O)O)C4(C)O5)c3O)OC2(C)C1=O` (stereo not given), the IC50 against ATP-citrate synthase [5] was 6.19 µM. In other words, the single-digit micromolar range.

For the compound `O=C(O)C[C@@](O)(C(=O)O)[C@H](O)C(=O)O`, the Ki on ATP-citrate synthase [6] is 300 µM. `CC(=O)C(C)=O` registered an inhibition in test [7] of 35%. Regarding `CC(=O)OC(C)(C)/C=C/C(=O)[C@](C)(O)[C@H]1[C@H](O)C[C@@]2(C)[C@@H]3CC=C4[C@@H](C[C@H](O)C(=O)C4(C)C)[C@]3(C)C(=O)C[C@]12C`, the IC50 in the test on LNCaP and in the test on PC-3 was 0.1 µM throughout. `CC(C)CC[C@H]1C(=O)O[C@H](C)[C@H](NC(=O)c2cccc(NC=O)c2O)C(=O)O[C@@H](C)[C@@H]1OC(=O)CC(C)C` gave a Ki on ATP-citrate synthase [5] of 4 µM. This counts as single-digit micromolar.

As to `CS(=N)(=O)C[C@@](O)(CC(=O)O)C(=O)O` (stereo not given in full), the Ki on ATP-citrate synthase [8] amounted to 250 µM. In turn, `O=CC(=O)c1ccccc1` yielded an inhibition in [7] of 85%. Turning to `O=C1C(c2ccc(O)c(O)c2)=c2c(c3c(n2CCc2ccc(O)cc2)=C(c2ccc(O)c(O)c2)C(=O)c2cc(O)c(O)cc2-3)-c2cc(O)c(O)cc21` [PURPURONE], the IC50 against ATP-citrate synthase [9] came to 7 µM.

Take `Clc1cccc(-c2ccc(Cl)c(Cl)c2Cl)c1Cl`: the “inhibition (INH)” value in the test with Rattus norvegicus [10] is listed as 69%. Regarding `O=C(O)C[C@@]1(O)C[C@@H](CCCCCCc2ccc(Cl)cc2Cl)OC1=O`, the IC50 in the test with SK-OV-3 turned out to be 53 µM; with A549 it was 24 µM; in the test on PC-3, 26 µM. In addition, the inhibition is 91% in test [11] and 82% in test [12]. In turn, `N[C@@H](CCC(=O)O)C(=O)O` [GLUTAMIC ACID] displayed a Ki at ATP-citrate synthase [5] of 300 µM. Same read-out and setting: the figure for `CCC(C)C(=O)O[C@H]1[C@H](C)OC(=O)[C@@H](NC(=O)c2cccc(NC=O)c2O)[C@@H](C)OC(=O)[C@@H]1CCC(C)C` (stereo not given in full) is 4 µM.

Turning to `O=C1C[C@@](O)(C(=O)O)[C@@H](C(=O)O)O1`, the Ki at ATP-citrate synthase [5] was 50 to 100 µM.

On ATP-citrate synthase [5], `CCCCCC[C@H]1C(=O)O[C@H](C)[C@H](NC(=O)c2cccc(NC=O)c2O)C(=O)O[C@@H](C)[C@@H]1OC(=O)CCC` gave a Ki of 4 µM. For the compound `CCCCCC[C@H]1C(=O)O[C@H](C)[C@H](NC(=O)c2cccc(NC=O)c2O)C(=O)O[C@@H](C)[C@@H]1OC(=O)C(C)C`, at ATP-citrate synthase [5], the affinity, expressed as Ki, was 4 µM.

Compound `CC12Oc3ccc(-c4ccc5c(c4O)C(=O)C4=C(O)C6OC6(C)C(OC(=O)CC(=O)O)C4(C)O5)c(O)c3C(=O)C1=C(O)C1OC1(C)C2O` (stereo not given) gave an IC50 against ATP-citrate synthase [5] of 9.63 µM.

The values above are taken from ChEMBL document CHEMBL4270641, “ATP citrate lyase (ACLY) inhibitors: An anti-cancer strategy at the crossroads of glucose and lipid metabolism” (Eur J Med Chem, 2018).
